Measurements: US11691981B2, “Heterocyclic compounds, preparation methods therefor, and methods of uses thereof” (INVENTISBIO CO., LTD., priority 2019, dated 2023)

Key:
TGFβR1 = TGFβR1 (Homo sapiens (Human), UniProt P36897); assay: TGFβR1 kinase inhibition assay (ADP-Glo Kinase Assay); type: biochemical; details: 40 nM TGFβR1 in 2x enzyme mix, 5.4 μM ATP in 2x substrate mix, 120 min RT
Procedure: TGFβR1 kinase assay was performed according to the instruction manual of the ADP-Glo™ Kinase Assay kit provided by Promega. Prepare 1× Kinase buffer (50 mM Tris pH7.5, 0.1% BSA, 10 mM MgCl2, 1 mM DTT). Before activation reaction was started, Compounds were dissolved in DMSO and make 100× solution with 3-fold serial dilution for a total of 10 concentrations. Transfer 50 nL compounds to 384-well plate according to plate map using the automated liquid handler. […] Add 5 μL ADP-Glo Reagent to terminate the kinase reaction and deplete the remaining ATP, incubate at RT for 60 minutes. Add 10 μL Kinase Detection Reagent to convert ADP to ATP and allow the newly synthesized ATP to be measured using a luciferin reaction, incubate at RT for 30 minutes. Collect luminescence data with Envision.

pooled human hepatocytes = assay: Human hepatocyte clearance study; type: in vitro ADME; details: human hepatocytes; for Human Hepatocyte Remaining Percentage @ 120 min: 0.5×10^6 viable cells/mL
Procedure: (§1) The in vitro human hepatocyte clearance of compounds described here was studied using pooled human hepatocytes purchased from BioreclamationIVT (Westbury, N.Y., Cat #X008001, Lot #TQJ). The assay was conducted according to manufacturer's instruction. Briefly, 10 mM stock solutions of test compounds and positive control (Verapamil) were prepared in 100% DMSO. Thawing media (50 mL) used in the study consists of: 31 mL Williams E medium (GIBCO Cat #12551-032); 15 mL isotonic percoll (GE Healthcare Cat #17-0891-09); 500 uL 100× GlutaMax (GIBCO Cat #35050); 750 uL HEPES (GIBCO Cat #15630-080); 2.5 mL FBS (Corning Cat #35-076-CVR); 50 uL human insulin (GIBCO Cat #12585-014) and 5 uL dexamethasone (NICPBP). Incubation media is made of Williams E medium supplemented with 1× GlutaMax. Both thawing medium and incubation medium (serum-free) were placed in a 37° C. water bath for at least 15 minutes prior to use. Compound stock solutions were diluted to 100 μM by combining 198 μL of 50% acetonitrle/50% water and 2 μL of 10 mM stock solution. Verapamil was use as positive control in the assay. Vials of cryopreserved hepatocytes were removed from storage and thawed in a 37° C. water bath with gentle shaking. Contents of the vial were poured into the 50 mL thawing medium conical tube. Vials were centrifuged at 100 g for 10 minutes at room temperature. Thawing medium was aspirated and hepatocytes were re-suspended with serum-free incubation medium to yield ˜1.5×10^6 cells/mL. Hepatocyte viability and density were counted using a Trypan Blue exclusion, and then cells were diluted with serum-free incubation medium to a working cell density of 0.5×10^6 viable cells/mL. Then, a portion of the hepatocytes at 0.5×10^6 viable cells/mL was boiled for 5 minutes prior to adding to the plate as negative control to eliminate the enzymatic activity so that little or no substrate turnover should be observed. The boiled hepatocytes were used to prepare negative samples. Aliquots of 198 μL hepatocytes were dispensed into each well of a 96-well non-coated plate. The plate was placed in the incubator on an orbital shaker at 500 rpm for approximately 10 minutes. Aliquots of 2 μL of the 100 μM test compound or positive control were added into respective wells of the non-coated 96-well plate to start the reaction. This assay was performed in duplicate. The plate was incubated in the incubator on an orbital shaker at 500 rpm for the designated time points. Twenty-five microliter of contents were transferred and mixed with 6 volumes (150 μL) of cold acetonitrile with IS (200 nM imipramine, 200 nM labetalol and 200 nM diclofenac) to terminate the reaction at time points of 0, 15, 30, 60, 90 and 120 minutes. Samples were centrifuged at 3,220 g for 25 minutes and aliquots of 150 μL of the supernatants were used for LC-MS/MS analysis. For data analysis, all calculations were carried out using Microsoft Excel. Peak areas were determined from extracted ion chromatograms. The in vitro half-life (t1/2) of parent compound was determined by regression analysis of the percent parent disappearance vs. time curve. The in vitro half-life (in vitro ti) was determined from the slope value: in vitro t1/2=0.693/k. […] Scaling factors for in vivo intrinsic clearance prediction using human hepatocytes are listed as: liver weight (g liver/kg body weight): 25.7; hepatocyte concentration (10^6 cells/g liver): 99; scaling factor: 2544.3.

MDCK-MDR1 cells = assay: P-glycoprotein substrate potential / permeability in MDR1-transfected MDCK cells; type: in vitro ADME
Procedure: (§2) MDCK-MDR1 cells were seeded into 96-well HTS Transwell plate at the density of 5.45×10^5/cm^2. Cells were cultivated for 4-7 days before the transport assay. Transepithelial electrical resistance (TEER) of MDCK-MDR1 monolayer was measured before the experiment with the Millicell Epithelial Volt-Ohm measuring system.
(§3) Transport assay: Cell monolayers were pre-incubated in transport medium (TM, HBSS with 25 mM HEPES, pH 7.4) for 30 min at 37° C. After preincubation, the study was initiated by adding the test compound to the donor side and TM to the receiver side. Compound transport was assessed at 1 μM in two directions (apical, AP to basolateral, BL and BL to AP) and the study was carried out in the presence and absence of P-gp inhibitor verapamil in both AP and BL compartments. After two hours incubation, aliquots of 50 μL from donor or receiver side were removed and mixed with 4 volumes of acetonitrile containing internal standards (200 nM alprazolam, 200 nM labetalol, 2 μM ketoprofen). Samples were analyzed by UPLC-MS/MS. All incubations were performed in duplicate. After the transport experiment, Lucifer Yellow leakage was measured in a fluorescence plate reader at 485 nm excitation and 530 nm emission.
(§4) Data Analysis: All calculations were carried out using Microsoft Excel. Peak areas are determined from extracted ion chromatograms.
(§5) The apparent permeability coefficient (Papp), in units of centimeter per second, was calculated for MDCK-MDR1 drug transport assays using the following equation: […]
(§6) Where VA is the volume (in mL) in the acceptor well, Area is the surface area of the membrane (0.143 cm2 for Transwell-96 Well Permeable Supports), and time is the total transport time in seconds.
(§7) The efflux ratio was determined using the following equation: […]
(§8) Where Papp (B-A) indicates the apparent permeability coefficient in basolateral to apical direction, and Papp (A-B) indicates the apparent permeability coefficient in apical to basolateral direction.

TGFβR2 = TGFβR2 (Homo sapiens (Human), UniProt P37173); assay: TGFβR2 kinase inhibition assay (ADP-Glo); type: biochemical; details: 10 uM ATP, 120 min room temperature
Procedure: The TGFβR2 enzyme reaction was carried out as follows: 50 nL of compound in DMSO (or DMSO controls) were stamped into 384 white, low-volume plates. 2.5 μL of 2× enzyme solution (final enzyme concentration was 3 ng/uL in 40 mMTris, 7.5; 20 mM MgCl2; 0.1 mg/mL BSA; 1 mM DTT) was dispensed into assay plate. The plate was then sealed and spun at 1000 rpm for 30 s and incubated at room temperature for 10 min. Followed by addition of 2.5 μL of 2× substrate solution that contains both ATP (to make a final concentration of 10 uM) and TGFβR2 substrate (final concentration of 0.2 ug/uL). The plate was then sealed and spun at 1000 rpm for 30 s and the reaction was then incubated at room temperature for 120 min. After that 5 μL ADP-Glo™ Reagent was added into the assay wells to stop the reaction and deplete unconsumed ATP for 40 min at room temperature; then, 10 μL of Detection Reagent was added into the assay wells, followed by 40 min incubation to develop luminescence. The luminescence signal was then collected on Envision 2104 plate reader.

[1] = Human hepatocyte clearance study; type: in vitro ADME; details: pooled cryopreserved human hepatocytes (suspension); for hepatocyte CLint at 1 µM / half-life at 1 µM: human; for hepatocyte CLint at 1 µM: read-out: Human In vitro Clint; for half-life at 1 µM: read-out: Human In vitro T1/2; for CLint scaled at 1 µM: human hepatocytes, scaling factor 2544.3, read-out: Human Scale-up Clint
Procedure: as §1

P-glycoprotein (MDR1) = assay: P-glycoprotein substrate potential / permeability in MDR1-transfected MDCK cells; type: in vitro ADME; details: dog, pH 7.4; for Papp A→B at 2 h, 1 µM / Papp B→A at 2 h, 1 µM: MDCK-MDR1, 1 μM, two hours; for Papp A→B at 2 h, 1 µM: apical to basolateral; for Papp B→A at 2 h, 1 µM: basolateral to apical; for efflux ratio at 2 h, 1 µM: MDCK-MDR1, Papp (B-A)/Papp (A-B)
Procedure: as §2, §3, §4, §5, §6, §7, §8

TGFβR2, sequence (P37173 23-567): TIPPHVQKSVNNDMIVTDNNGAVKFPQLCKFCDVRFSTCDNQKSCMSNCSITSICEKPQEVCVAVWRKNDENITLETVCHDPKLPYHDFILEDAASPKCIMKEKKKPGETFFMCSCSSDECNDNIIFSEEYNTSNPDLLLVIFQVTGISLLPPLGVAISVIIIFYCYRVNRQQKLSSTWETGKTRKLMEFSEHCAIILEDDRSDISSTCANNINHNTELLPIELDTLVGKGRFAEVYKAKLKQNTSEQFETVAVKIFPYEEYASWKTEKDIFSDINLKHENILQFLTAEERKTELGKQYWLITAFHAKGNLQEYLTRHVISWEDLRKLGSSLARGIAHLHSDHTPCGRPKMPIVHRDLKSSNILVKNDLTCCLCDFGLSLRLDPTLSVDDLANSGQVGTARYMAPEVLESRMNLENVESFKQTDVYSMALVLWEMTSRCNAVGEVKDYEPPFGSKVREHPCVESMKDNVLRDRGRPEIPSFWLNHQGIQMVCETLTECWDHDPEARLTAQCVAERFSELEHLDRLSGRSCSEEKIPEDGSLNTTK
TGFβR1, sequence (P36897 34-503): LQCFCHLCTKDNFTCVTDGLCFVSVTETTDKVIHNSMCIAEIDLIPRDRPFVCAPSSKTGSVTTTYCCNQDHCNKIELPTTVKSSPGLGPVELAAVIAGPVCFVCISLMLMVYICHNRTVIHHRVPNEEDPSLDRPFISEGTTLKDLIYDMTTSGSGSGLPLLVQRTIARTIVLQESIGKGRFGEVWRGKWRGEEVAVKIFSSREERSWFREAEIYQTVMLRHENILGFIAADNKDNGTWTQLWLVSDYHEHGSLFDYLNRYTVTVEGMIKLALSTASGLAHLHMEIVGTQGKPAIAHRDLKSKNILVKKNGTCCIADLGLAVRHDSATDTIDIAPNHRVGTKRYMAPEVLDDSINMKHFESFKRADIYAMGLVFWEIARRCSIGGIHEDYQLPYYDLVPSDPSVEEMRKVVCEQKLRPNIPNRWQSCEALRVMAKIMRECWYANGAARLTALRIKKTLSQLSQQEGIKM

Structure (SMILES)	IC50 (TGFβR1)	IC50 (TGFβR2)	hepatocyte CLint at 1 µM [1]	half-life at 1 µM [1]	CLint scaled at 1 µM [1]	Human Hepatocyte Remaining Percentage @ 120 min (pooled human hepatocytes)	further results
CC(C)(O)c1cc(Nc2cc(Oc3cc(C(F)(F)F)nn3C3CCOCC3)ccn2)ccn1 [Compound 2]	53 nM					72%	Human In vitro Clint (pooled human hepatocytes): 5.6 μL/min/10^6 cells; Human In vitro T1/2 (pooled human hepatocytes): 4.1 h; Human Scale-up Clint (pooled human hepatocytes; scaling factor 2544.3): 14.3 mL/min/kg; Papp (A-B) (MDCK-MDR1 cells; MDCK-MDR1, 1 μM, apical to basolateral, two hours): 4.95 10^−6, cm/s; Papp (B-A) (MDCK-MDR1 cells; MDCK-MDR1, 1 μM, basolateral to apical, two hours): 14.87 10^−6, cm/s; Efflux Ratio (MDCK-MDR1 cells; MDCK-MDR1, Papp (B-A)/Papp (A-B)): 3.00
CC(C)(O)c1ccc(Nc2cc(Oc3cc(C(F)(F)F)nn3C3CCOCC3)ccn2)cn1 [Compound 11]	24 nM	> 100000 nM	5.7 µL/min/1e6 cells	4.03 h	14.6 mL/min/kg	71%	Papp A→B at 2 h, 1 µM (P-glycoprotein (MDR1)): 7.38 ×10⁻⁶ cm/s; Papp B→A at 2 h, 1 µM (P-glycoprotein (MDR1)): 6.24 ×10⁻⁶ cm/s; efflux ratio at 2 h, 1 µM (P-glycoprotein (MDR1)): 0.85
NS(=O)(=O)c1ccc(Nc2cc(Oc3cc(C(F)(F)F)nn3C3CCOCC3)ccn2)cc1 [Compound 12]	28 nM	> 100000 nM	7.7 µL/min/1e6 cells	3 h	19.6 mL/min/kg	64%	
NS(=O)(=O)c1ccc(Nc2cc(Oc3cc(C4CC4)nn3C3CC3)ccn2)cc1 [Compound 13]	44 nM	> 100000 nM	7.5 µL/min/1e6 cells	3.08 h	19 mL/min/kg	65%	
Cn1nc(C(F)(F)F)cc1Oc1ccnc(Nc2ccnc(C(C)(C)O)c2)c1 [Compound 23]	38 nM		2.2 µL/min/1e6 cells	10.4 h	5.6 mL/min/kg	88%	
CC(C)(O)c1cc(Nc2cc(Oc3cc(C(F)(F)F)nn3-c3ccccn3)ccn2)ccn1 [Compound 41]	12 nM	15000 nM					Papp A→B at 2 h, 1 µM (P-glycoprotein (MDR1)): 3.63 ×10⁻⁶ cm/s; Papp B→A at 2 h, 1 µM (P-glycoprotein (MDR1)): 4.88 ×10⁻⁶ cm/s; efflux ratio at 2 h, 1 µM (P-glycoprotein (MDR1)): 1.35
CC(C)(O)c1cc(Nc2cc(Oc3cccnc3C3CCOCC3)ccn2)ccn1 [Compound 54]	56 nM	> 100000 nM	6.8 µL/min/1e6 cells	3.38 h	17.4 mL/min/kg	61%	

Further lines, with some results ahead:

IC50 (TGFβR1)	IC50 (TGFβR2)	hepatocyte CLint at 1 µM [1]	half-life at 1 µM [1]	CLint scaled at 1 µM [1]	Structure (SMILES)	Human Hepatocyte Remaining Percentage @ 120 min (pooled human hepatocytes)	further results
35 nM	15000 nM				Cc1ccc(Oc2ccnc(Nc3ccnc(C(C)(C)O)c3)c2)c(C2CCOCC2)n1 [Compound 55]		
21 nM	> 100000 nM	2.4 µL/min/1e6 cells	9.73 h	6 mL/min/kg	Cc1ccc(Oc2ccnc(Nc3ccnc(C(C)(C)O)c3)c2)c(C)n1 [Compound 57]	89%	Papp A→B at 2 h, 1 µM (P-glycoprotein (MDR1)): 12.4 ×10⁻⁶ cm/s; Papp B→A at 2 h, 1 µM (P-glycoprotein (MDR1)): 18 ×10⁻⁶ cm/s; efflux ratio at 2 h, 1 µM (P-glycoprotein (MDR1)): 1.46
39 nM	11000 nM				Cc1ccc(Oc2ccnc(Nc3ccnc(C(C)(C)O)c3)c2)c(C2CC2)n1 [Compound 58]		
32 nM	10000 nM				Cc1ccc(Oc2ccnc(Nc3ccc(S(N)(=O)=O)cc3)c2)c(C2CCOCC2)n1 [Compound 59]		
51 nM	> 100000 nM				CC(C)(O)c1cc(Nc2cc(Oc3cn(C4CCC4)nc3C3CCOCC3)ccn2)ccn1 [Compound 67]		
631 nM	> 100000 nM				CC(C)(O)c1cc(Nc2cc(Oc3cn(C4CCCC4)nc3C3CCOCC3)ccn2)ccn1 [Compound 68]		
454 nM	> 100000 nM				CC(C)(O)c1cc(Nc2cc(Oc3cn(CC(F)(F)F)nc3C3CCOCC3)ccn2)ccn1 [Compound 69]		
22 nM	> 100000 nM				CC1(C)OC(=N)c2ccc(Nc3cc(Oc4cn(C5CC5)nc4C4CCOCC4)ccn3)cc21 [Compound 78]		
29 nM	73000 nM				CC1(C)OC(=O)c2ccc(Nc3cc(Oc4cn(C5CC5)nc4C4CCOCC4)ccn3)cc21 [Compound 79]		
		12.5 µL/min/1e6 cells	1.85 h	31.7 mL/min/kg	CC(C)(O)c1cc(Nc2cc(Oc3cn(C4CC4)nc3C3CCOCC3)ccn2)ccn1 [Compound A, 2-(4-((4-((1-cyclopropyl-3-(tetrahydro-2H-pyran-4-yl)-1H-pyrazol-4-yl)oxy)pyridin-2-yl)amino)pyridin-2-yl)propan-2-ol, reference compound]	48%	Papp A→B at 2 h, 1 µM (P-glycoprotein (MDR1)): 2.75 ×10⁻⁶ cm/s; Papp B→A at 2 h, 1 µM (P-glycoprotein (MDR1)): 37.8 ×10⁻⁶ cm/s; efflux ratio at 2 h, 1 µM (P-glycoprotein (MDR1)): 13.7
